Consider one substance from patent US20180228815A1, “NARINGENIN AND ASIATIC ACID COMBINATION TREATMENT OF CANCERS” (The Chinese University of Hong Kong, priority 2016, published 2018).

The test system of the assay is bone marrow-derived NK cells. The assay is described as follows: Flow cytometry of bone marrow-derived NK cell differentiation (NK1.1+ CD122+). It counts as cell-based, mouse. To be noted: TGF-β1 at 5 ng/ml; 80% without TGF-β1. The method, then: FIGS. 15A-15B. Combination of AA and NG attenuates TGF-β1 induced inhibition on NK cell differentiation. […] (FIG. 15B) Flow cytometry detects that the effect of AA, NG, and their combination on bone marrow-derived NK differentiation in response to TGF-β1 (5 ng/ml). Each error bar represents the mean±SEM for groups of three independent experiments. *** p<0.001 compared to TGF-β1; ### p<0.001 as indicated.
After euthanasia, bone marrow cells were isolated from C57BL/6 mice following the protocol as previously described (10). Bone marrow cells were then seeded at the density of 1×10^6 cells/ml in MEMα medium (Gibco, Thermo Fisher Scientific Inc., MA, USA) containing 10% FBS supplemented with 1 ng/ml IL-7, 10 ng/ml Flt3L, 30 ng/ml SCF, 50 ng/ml IL-15 (Peprotech, NJ, USA) and […] β-Mercaptoethanol (Gibco, Thermo Fisher Scientific Inc., MA, USA) and cultured for 4 days. Then transferred cells to MEMα medium containing 10% FBS supplemented with 50 ng/ml IL-15, 20 ng/ml IL-2 and […] β-Mercaptoethanol to induce NK cells maturation for another 3 days.
Peripheral blood NK cells and cultured NK cells were analyzed using various markers as previously described (10), including rat anti-mouse CD16/CD32 antibody (BD Pharmingen, BD Biosciences, CA, USA), APC-conjugated anti-mouse NK1.1, PE-conjugated anti-mouse NKp46, PE-conjugated anti-mouse CD122 (eBioscience Inc., CA, USA) and Alexa 488-conjugated anti-mouse/human CD11b Antibody (Biolegend, CA, USA). After immunostaining, cells were resuspended with 200 μl staining buffer and analyzed with BD Accuri™ C6 Cytometer (BD Biosciences, CA, USA).

On to “TGF-β1: cytokine added to NK cell cultures to suppress NK cell development [reference compound]”, for which the “NK1.1+ CD122+ cell (immature NK cells) proportion” value is recorded as 11%.
